Test results reported in ChEMBL document CHEMBL5620384, “6-Regioisomeric 5,8-quinolinediones as potent CDC25 inhibitors against colorectal cancers” (Eur J Med Chem, 2023).
Activity calls are given as the source filed them. No cut-off for these calls is given here.

Columns and labels:
[1] = test system: HCT-116; experiment: Cytotoxicity against human HCT-116 cells assessed as cell survival measured at 2 uM after 72 hrs by MTS assay relative to control; assay type: functional; conditions: read-out: Activity
[2] = test system: DLD-1; experiment: Cytotoxicity against human DLD-1 cells assessed as cell survival measured at 2 uM after 72 hrs by MTS assay relative to control; assay type: functional; conditions: read-out: Activity
[3] = test system: U-87 MG; experiment: Cytotoxicity against human U-87 MG cells assessed as cell survival measured at 2 uM after 72 hrs by MTS assay relative to control; assay type: functional, U-87MG ATCC; conditions: read-out: Activity
[4] = test system: MDA-MB-231; experiment: Cytotoxicity against human MDA-MB-231 cells assessed as cell survival measured at 2 uM after 72 hrs by MTS assay relative to control; assay type: functional; conditions: read-out: Activity
[5] = test system: SW480; experiment: Cytotoxicity against human SW480 cells assessed as cell survival measured at 2 uM after 72 hrs by MTS assay relative to control; assay type: functional; conditions: read-out: Activity
[6] = test system: MCF7; experiment: Cytotoxicity against human MCF7 cells assessed as cell survival measured at 2 uM after 72 hrs by MTS assay relative to control; assay type: functional; conditions: read-out: Activity
[7] = test system: DLD-1; experiment: Cytotoxicity against human DLD1 cells assessed as growth inhibition after 72 hrs by MTS assay; assay type: functional, cell-based; conditions: DLD-1, 72 h
[8] = test system: MDA-MB-231; experiment: Cytotoxicity against human MDA-MB-231 cells assessed as growth inhibition after 72 hrs by MTS assay; assay type: functional, cell-based; conditions: MDA-MB-231, 72 h
[9] = Cytotoxicity against human CCD-841CoN cells assessed as growth inhibition after 72 hrs by MTS assay; assay type: toxicity, cell-based
[10] = Cytotoxicity against human M10 cells assessed as growth inhibition after 72 hrs by MTS assay; assay type: toxicity, cell-based
[11] = Cytotoxicity against human MRC5 cells assessed as growth inhibition after 72 hrs by MTS assay; assay type: toxicity, cell-based
[12] = Cytotoxicity against human HEL 299 cells assessed as growth inhibition after 72 hrs by MTS assay; assay type: toxicity, cell-based
[13] = test system: HCT-116; experiment: Induction of cell cycle arrest in human HCT-116 cells assessed as cells accumulation at S to G2 phase (T6-T8) at 2 uM measured upto 24 hrs by flow cytometry; assay type: functional, cell-based
[14] = test system: HCT-116; experiment: Induction of cell cycle arrest in human HCT-116 cells assessed as cells accumulation at G2/M phase (T10-T24) at 2 uM measured upto 24 hrs by flow cytometry; assay type: functional, cell-based
[15] = test system: DLD-1; experiment: Induction of cell cycle arrest in human DLD-1 cells assessed as reduced progression of S phase (T8) at 2 uM measured upto 24 hrs by flow cytometry; assay type: functional, cell-based
[16] = test system: HCT-116; experiment: Effect on cell cycle progression in thymidine synchronized human HCT-116 cells assessed as suppression of CDK1 dephosphorylation in presence of colchicine at 2 uM by Western blot analysis; assay type: functional, cell-based
[17] = test system: HCT-116; experiment: Effect on cell cycle progression in thymidine synchronized human HCT-116 cells assessed as prevention of cells entering from mitosis in presence of colchicine at 2 uM by Western blot analysis; assay type: functional, cell-based
[18] = test system: HCT-116; experiment: Suppression of histone H4 methylation at K20 (H4K20me1) in thymidine synchronized human HCT-116 cells at 2 uM measured upto 8 hrs by Western blot analysis; assay type: functional, cell-based
[19] = test system: HCT-116; experiment: Induction of DNA damaging in human HCT-116 cells assessed as CDK1Y15 dephosphorylation at 2 uM measured upto 8 hrs by Western blot analysis; assay type: functional, cell-based
[20] = test system: HCT-116; experiment: Induction of DNA damaging in human HCT-116 cells assessed as H4K20 methylation at 2 uM measured upto 8 hrs by Western blot analysis; assay type: functional, cell-based
[21] = test system: HCT-116; experiment: Induction of DNA damaging in human HCT-116 cells assessed as CHK1 phosphorylation at S345 at 2 uM measured upto 8 hrs by Western blot analysis; assay type: functional, cell-based
[22] = test system: HCT-116; experiment: Induction of DNA damaging in human HCT-116 cells assessed as RPA2 phosphorylation at S33 at 2 uM measured upto 8 hrs by Western blot analysis; assay type: functional, cell-based
[23] = test system: HCT-116; experiment: Induction of DNA damaging in human HCT-116 cells assessed as KAP-1 phosphorylation at S824 at 2 uM measured upto 8 hrs by Western blot analysis; assay type: functional, cell-based
[24] = test system: HCT-116; experiment: Induction of DNA damaging in human HCT-116 cells assessed as CHK2 phosphorylation at T68 at 2 uM measured upto 8 hrs by Western blot analysis; assay type: functional, cell-based
[25] = test system: HCT-116; experiment: Induction of DNA damaging in human HCT-116 cells assessed as RPA2 phosphorylation at S4/S8 at 2 uM measured upto 8 hrs by Western blot analysis; assay type: functional, cell-based
[26] = test system: HCT-116; experiment: Induction of apoptosis in human HCT-116 cells assessed as reduction in number of cells at G1 phase at 1 uM measured after 72 hrs by flow cytometry; assay type: functional, cell-based
[27] = test system: HCT-116; experiment: Induction of apoptosis in human HCT-116 cells assessed as reduction in number of cells at S phase at 1 uM measured after 72 hrs by flow cytometry; assay type: functional, cell-based
[28] = test system: HCT-116; experiment: Induction of apoptosis in human HCT-116 cells assessed as reduction in number of cells at G2/M phase at 1 uM measured after 72 hrs by flow cytometry; assay type: functional, cell-based
[29] = test system: HCT-116; experiment: Induction of apoptosis in human HCT-116 cells assessed as increase in number of cells at sub-G1 phase measured after 72 hrs by flow cytometry; assay type: functional, cell-based; conditions: dose 1-4 µM
[30] = test system: HCT-116; experiment: Induction of apoptosis in human HCT-116 cells assessed as increase in caspase 3 at 1 uM measured after 72 hrs by flow cytometry; assay type: functional, cell-based
[31] = test system: HCT-116; experiment: Induction of apoptosis in human HCT-116 cells assessed as increase in caspase 8 at 1 uM measured after 72 hrs by flow cytometry; assay type: functional, cell-based
[32] = test system: HCT-116; experiment: Induction of apoptosis in human HCT-116 cells assessed as increase in caspase 9 at 1 uM measured after 72 hrs by flow cytometry; assay type: functional, cell-based
[33] = test system: HCT-116; experiment: Induction of apoptosis in human HCT-116 cells assessed as decrease in MCL1 expression at 1 uM measured after 72 hrs by flow cytometry; assay type: functional, cell-based

O=C1C(Cl)=C(NCCCCN2CCOCC2)C(=O)c2ncccc21
viability at 2 µM [1]: 53.9%
viability at 2 µM [2]: 77.3%
viability at 2 µM [3]: 81.5%
viability at 2 µM [4]: 88.6%

O=C1C(NCCCCCN2CCOCC2)=C(Cl)C(=O)c2ncccc21
viability at 2 µM [1]: 13.7%
viability at 2 µM [2]: 30.5%
viability at 2 µM [5]: 31%
viability at 2 µM [3]: 49.8%
viability at 2 µM [4]: 83.4%
viability at 2 µM [6]: 73.9%
IC50 [7]: 1.94 µM
IC50 [8]: 1.19 µM

O=C1C(Cl)=C(NCCN2CCOCC2)C(=O)c2cc([N+](=O)[O-])ccc21
viability at 2 µM [1]: 66%
viability at 2 µM [2]: 54.9%
viability at 2 µM [5]: 76.8%
viability at 2 µM [3]: 89.1%
viability at 2 µM [4]: 66.8%
viability at 2 µM [6]: 90.5%

O=C1C(Cl)=C(NCCN2CCOCC2)C(=O)c2ccc(Cl)cc21
viability at 2 µM [1]: 93%
viability at 2 µM [2]: 91.5%
viability at 2 µM [5]: 106%
viability at 2 µM [3]: 103%
viability at 2 µM [4]: 95.9%
viability at 2 µM [6]: 101%

O=C1C(Cl)=C(NCCN2CCOCC2)C(=O)c2ccc([N+](=O)[O-])cc21
viability at 2 µM [1]: 99.7%
viability at 2 µM [2]: 97.8%
viability at 2 µM [5]: 94.2%
viability at 2 µM [3]: 106%
viability at 2 µM [4]: 92.9%
viability at 2 µM [6]: 106%

O=C1C(Cl)=C(NCCN2CCOCC2)C(=O)c2ccc(Br)cc21
viability at 2 µM [1]: 89.3%
viability at 2 µM [2]: 75.6%
viability at 2 µM [5]: 105%
viability at 2 µM [3]: 91.6%
viability at 2 µM [4]: 85.4%
viability at 2 µM [6]: 100%

O=C1C(NCCN2CCOCC2)=C(Cl)C(=O)c2ncccc21
viability at 2 µM [1]: 0.85%
viability at 2 µM [2]: 1.86%
viability at 2 µM [5]: 16.7%
viability at 2 µM [3]: 28%
viability at 2 µM [4]: 93.2%
viability at 2 µM [6]: 36.3%
IC50 [7]: 0.59 µM
IC50 [8]: 0.44 µM
IC50 at 72 h [9]: > 2 µM
IC50 at 72 h [10]: > 2 µM
IC50 at 72 h [11]: > 2 µM
IC50 at 72 h [12]: > 2 µM
Activity [13]: Active
Activity [14]: Active
Activity [15]: Active
Activity [16]: Active
Activity [17]: Active
Activity [18]: Active
Activity [19]: Active
Activity [20]: Active
Activity [21]: Active
Activity [22]: Active
Activity [23]: Active
Activity [24]: Active
Activity [25]: Active
Activity [26]: Active
Activity [27]: Active
Activity [28]: Active
Activity [29]: Dose-Dependent Effect
Activity [30]: Active
Activity [31]: Active
Activity [32]: Active
Activity [33]: Active

O=C1C(NCCN2CCOCC2)=C(Cl)C(=O)c2c1cccc2[N+](=O)[O-]
viability at 2 µM [1]: 86.3%
viability at 2 µM [2]: 59.9%
viability at 2 µM [5]: 89.3%
viability at 2 µM [3]: 84.6%
viability at 2 µM [4]: 99.3%
viability at 2 µM [6]: 88.9%

O=C1C(Cl)=C(NCCN2CCOCC2)C(=O)c2ccc(I)cc21
viability at 2 µM [1]: 94.4%
viability at 2 µM [2]: 82.1%
viability at 2 µM [5]: 111%
viability at 2 µM [3]: 104%
viability at 2 µM [4]: 91%
viability at 2 µM [6]: 104%

O=C1C(Cl)=C(NCCN2CCOCC2)C(=O)c2c1cccc2[N+](=O)[O-]
viability at 2 µM [1]: 100%
viability at 2 µM [2]: 93.2%
viability at 2 µM [5]: 97.8%
viability at 2 µM [3]: 105%
viability at 2 µM [4]: 98.2%
viability at 2 µM [6]: 109%

O=C1C(Cl)=C(NCCN2CCOCC2)C(=O)c2cc(Br)ccc21
viability at 2 µM [1]: 86.8%
viability at 2 µM [2]: 10.3%
viability at 2 µM [5]: 99.7%
viability at 2 µM [3]: 86.8%
viability at 2 µM [4]: 80.3%
viability at 2 µM [6]: 105%
